# Test results: US10611771B2, “Pyrazolo [3,4-d] pyrimidine derivative” (WEST CHINA HOSPITAL, SICHUAN UNIVERSITY, priority 2016, dated 2020)
# “And” between values parts separate entries of the source, which are not always exact repeats. Equal values may be shown once.
# Test system: A549 cells
# Assay: MTT detection method, inhibitory effect against A549 cells
# Assay type: cell-based
# Excerpt: MTT detection method was used, and MTT is a yellow compound and a dye accepting hydrogen ions, and can be used as the respiratory chain in mitochondria of viable cells. Under the action of succinate dehydrogenase and cytochrome C, the tetrazolium ring broke to form blue formanzan crystal, and the formation amount of formanzan crystal was only directly proportional to the viable counts. The formanzan crystal formed by reduction can dissolve in dimethyl sulfoxide (DMSO), and the optical density (OD) value can be determined at 490 nm using ELISA, to reflect the viable counts.
# • Lung cancer cell lines: A549 and H1299. • Experimental materials: lung cancer cell lines, instruments and tools for cell culture, MTT, the compound mother liquid (10 mmol/L), and the positive control drug Src inhibitor pp1. 1. Specific Method • (3-1) Cell lines A549 and H1299 were recovered, and when the cells were in good conditions, namely cells grew to about 80% after one passage (i.e. the logarithmic growth phase), the cells were planked (96-well plate). • (3-2) Firstly, cells were collected, and the concentration of cell suspension was adjusted with counting chamber. Cells were seeded in 96-well plate at 1000˜10000 cells/well, and the detailed cell numbers in each well were dependent on the growth rate of different cells and the action time of drugs. A549 cells were seeded at 5000 cells, while H1299 cells were also seeded at 5000 cells, 200 μl for each well (100 μl cell suspension+100 μl drug dilution at different concentration gradient). The edge wells (36) were added 200 μl culture media (for prevention of edge effect). • (3-3) After planking and adding drugs, the plate was treated at 24 h, 48 h, and 72 h, and then for coloration, each well was added 200 μl culture media containing 20 μl MTT solution (5 mg/mL). The plate was continually cultured for 1˜4 hours, the incubation was stopped, and the culture supernatant fluid in each well was carefully absorbed. For suspension cells, the culture supernatant fluid in each well need be centrifuged before drawing. 150 μl DMSO was added to each well, and the plate was shaken on a shaking table for 15˜20 min, to allow the crystals to be completely dissolved. • (3-4) Colorimetry: The colorimetry was performed by ELISA, and the optical absorption value of each well was tested at a wavelength of 490 nm or 570 nm, and the result was recorded. • (3-5) Calculation Inhibition ratio=(the control−the drug)/the control×100% • IC50 (50% inhibitory concentration) can be calculated by spass software based on the inhibitory ratio at different concentration. II. Experimental Results • A549 cells were treated at 4 h, 24 h, 48 h, 72 h, and the drug dose was divided into the light concentration group (10 μm, 25 μm, 40 μm) and the high concentration group (50 μm, 80 μm, 100 μm), that were seeded at 6000 cells/well and 5000 cells/well, respectively, to carry out the experiment.
compound,measurement,setting,value
"Cc1ccc(-c2nn(C(C)(C)C)c3ncnc(N)c23)cc1 [PP1, reference compound]",The inhibitory ratio (%) for three parallel assays,"4 h, 10 μm",14.06% and 5.63% and 10.31%
same,The mean inhibitory ratio (%),"4 h, 10 μm",10.00%
same,The mean inhibitory ratio (%),"4 h, 25 μm",8.44%
same,The inhibitory ratio (%) for three parallel assays,"4 h, 40 μm",31.88% and 35.00% and 23.44%
same,The mean inhibitory ratio (%),"4 h, 40 μm",30.10%
same,The inhibitory ratio (%) for three parallel assays,"4 h, 50 μm",26.86% and 23.43% and 24.00%
same,The mean inhibitory ratio (%),"4 h, 50 μm",24.76%
same,The inhibitory ratio (%) for three parallel assays,"4 h, 80 μm",32.86% and 31.43% and 30.00%
same,The mean inhibitory ratio (%),"4 h, 80 μm",31.43%
same,The inhibitory ratio (%) for three parallel assays,"4 h, 100 μm",44.00% and 43.43%
same,The mean inhibitory ratio (%),"4 h, 100 μm",43.81%
same,The inhibitory ratio (%) for three parallel assays,"24 h, 10 μm",14.13% and 14.78% and 11.09%
same,The mean inhibitory ratio (%),"24 h, 10 μm",13.33%
same,The inhibitory ratio (%) for three parallel assays,"24 h, 25 μm",49.35% and 47.39% and 48.04%
same,The mean inhibitory ratio (%),"24 h, 25 μm",48.26%
same,The inhibitory ratio (%) for three parallel assays,"24 h, 40 μm",63.91% and 64.13% and 64.35%
same,The mean inhibitory ratio (%),"24 h, 40 μm",64.13%
same,The inhibitory ratio (%) for three parallel assays,"24 h, 50 μm",56.46% and 55.83% and 56.04%
same,The mean inhibitory ratio (%),"24 h, 50 μm",56.11%
same,The inhibitory ratio (%) for three parallel assays,"24 h, 80 μm",74.79% and 72.92% and 73.54%
same,The mean inhibitory ratio (%),"24 h, 80 μm",73.75%
same,The inhibitory ratio (%) for three parallel assays,"24 h, 100 μm",80.63% and 79.58% and 79.17%
same,The mean inhibitory ratio (%),"24 h, 100 μm",79.79%
same,The inhibitory ratio (%) for three parallel assays,"48 h, 10 μm",48.91% and 48.44% and 45.94%
same,The mean inhibitory ratio (%),"48 h, 10 μm",47.76%
same,The inhibitory ratio (%) for three parallel assays,"48 h, 25 μm",66.88% and 67.03% and 66.72%
same,The mean inhibitory ratio (%),"48 h, 25 μm",66.88%
same,The inhibitory ratio (%) for three parallel assays,"48 h, 40 μm",74.53% and 74.22%
same,The mean inhibitory ratio (%),"48 h, 40 μm",74.43%
same,The inhibitory ratio (%) for three parallel assays,"48 h, 50 μm",69.50% and 67.00% and 66.67%
same,The mean inhibitory ratio (%),"48 h, 50 μm",67.72%
same,The inhibitory ratio (%) for three parallel assays,"48 h, 80 μm",81.17% and 80.00% and 80.17%
same,The mean inhibitory ratio (%),"48 h, 80 μm",80.44%
same,The inhibitory ratio (%) for three parallel assays,"48 h, 100 μm",82.50% and 81.33% and 82.33%
same,The mean inhibitory ratio (%),"48 h, 100 μm",82.06%
same,The inhibitory ratio (%) for three parallel assays,"72 h, 10 μm",63.42% and 63.87% and 64.59%
same,The mean inhibitory ratio (%),"72 h, 10 μm",63.96%
same,The inhibitory ratio (%) for three parallel assays,"72 h, 25 μm",83.06% and 82.97% and 83.69%
same,The mean inhibitory ratio (%),"72 h, 25 μm",83.24%
same,The inhibitory ratio (%) for three parallel assays,"72 h, 40 μm",86.76% and 86.13% and 87.66%
same,The mean inhibitory ratio (%),"72 h, 40 μm",86.85%
same,The inhibitory ratio (%) for three parallel assays,"72 h, 50 μm",82.70% and 81.35% and 82.43%
same,The mean inhibitory ratio (%),"72 h, 50 μm",82.16%
same,The inhibitory ratio (%) for three parallel assays,"72 h, 80 μm",85.95% and 86.22% and 86.08%
same,The mean inhibitory ratio (%),"72 h, 80 μm",86.08%
same,The inhibitory ratio (%) for three parallel assays,"72 h, 100 μm",85.41% and 85.68%
same,The mean inhibitory ratio (%),"72 h, 100 μm",85.59%
